Source: patent publication US20220091133A1, “METHODS AND ASSAYS FOR IMMUNE PHENOTYPING” (Washington University, priority 2020, published 2022)

Assays:
[1] = test system: SARS-CoV-2-specific T cells; experiment: ELISpot, IFN-γ response to SARS-CoV-2 spike glycoprotein and nucleocapsid peptide pool (Example 5); assay type: in vivo, human; conditions: before vs after IL-7 therapy
[2] = test system: sepsis-induced lymphopenia; conditions: clinical trial, reference 54; cited from earlier work
[3] = test system: PBMCs (monocyte TNF-α production); assay type: cell-based, human
[4] = test system: PBMCs (TNF-α-producing cells); experiment: ELISpot, lipopolysaccharide-stimulated TNF-α in patient PBMCs before and after IL-7 therapy (Example 5); assay type: in vivo, human; conditions: concomitant with initiation of IL-7 treatment
[5] = Enzyme-linked immunosorbent assays for plasma type I IFN levels (Example 5); assay type: in vivo, human; conditions: plasma of critically ill COVID-19 patient
[6] = test system: diluted whole blood (myeloid cell TNF-α production); experiment: Whole blood ELISpot, LPS-stimulated TNF-α production (Example 2); assay type: cell-based, human
Method: Innate and adaptive immune function was assessed using ELISpot analysis by measurement of the production of IFN-γ and TNF-α in ex vivo-stimulated cells following overnight culture. Capture Ab precoated 96-well polyvinylidene difluoride-backed strip plates were used for single color enzymatic assays (ImmunoSpot; Cellular Technology [CTL], Cleveland, Ohio) for detection of human IFN-γ and TNF-α. ELISpot culture procedure was followed as directed using instructions from the ELISpot kit. Samples were run in duplicate for each test condition. Plates were prepared with stimulant and were incubated at 37° C. and 5% CO2 for 30 min prior to plating cells. Identical conditions were prepared for comparison of whole blood assay to PBMC assay, and culture media alone was used as a negative control. […] PBMCs were plated into wells in quantities of 2.5×10^4 cells per well for IFN-γ and 2.5×10^3 cells per well for TNF-α. […]
(§1) Samples were scanned, analyzed, and quality controlled for spot count, spot area, and TWI using a Cellular Technology series 6 ImmunoSpot Universal Analyzer with ImmunoSpot 7.0 professional software (Cellular Technology Analyzers, Shaker Heights, Ohio). […]
(§2) The number of cytokine-secreting cells present in each ELISpot well is referred to as spot-forming units (SFU) and is reported in two distinct ways. […] The number of lymphocytes in each well was determined based upon the absolute lymphocyte count as measured by the patients' complete blood count. For ELISpot studies involving PBMCs, flow cytometry was performed on the PBMC fraction, and the number of lymphocytes, monocytes, and residual neutrophils were determined. […] Samples were acquired on FACScan (Becton Dickenson, Franklin Lakes, N.J.) with a five-color modification (CyTek Biosciences, Fremont, Calif.) and analyzed using FlowJo 10.2 (FlowJo, Ashland, Oreg.) as previously described (28). […]

[7] = test system: invasive fungal soft tissue infection (Trichosporon asahii, Fusarium, Saksenaea); experiment: IL-7 immunotherapy in a patient with intractable fungal wound sepsis (clinical course, lymphocyte count); assay type: in vivo, human
Method: Twenty-four hours later, the dosage was increased to 10 μg/kg and continued every 3-4 days for 7 doses. […] As illustrated by serial pictures of the wound, the most notable change following initiation of IL-7 was to slow the progression of the invasive soft tissue necrosis (FIG. 28B, green arrows).
In addition to decreased infectious spread and fungal proliferation, with improved wound healing and healthier-appearing tissue margins, clinical indicators of severity of disease improved within days of IL-7 treatment initiation with improvement of the fever curve, tachycardia, and tachypnea (FIG. 30). Laboratory evidence of resolution of the fungal invasion included progressive decreases in total white blood cell count and increasing absolute lymphocyte counts (FIG. 28A). The patient's absolute lymphocyte count increased >6-fold from a low of 600 lymphocytes/μL to >4000 lymphocytes/μL (upper limit of normal for absolute lymphocyte counts is 3500). Of note, the increase in the patient's absolute lymphocyte count was likely due to both the effect of IL-7 in inducing lymphocyte proliferation and to the resolution of the fungal infection.

[8] = test system: diluted whole blood (T cell IFN-γ production); experiment: Whole blood ELISpot, CD3/CD28-stimulated IFN-γ production (Example 2); assay type: cell-based, human
Method: Innate and adaptive immune function was assessed using ELISpot analysis by measurement of the production of IFN-γ and TNF-α in ex vivo-stimulated cells following overnight culture. Capture Ab precoated 96-well polyvinylidene difluoride-backed strip plates were used for single color enzymatic assays (ImmunoSpot; Cellular Technology [CTL], Cleveland, Ohio) for detection of human IFN-γ and TNF-α. ELISpot culture procedure was followed as directed using instructions from the ELISpot kit. Samples were run in duplicate for each test condition. Plates were prepared with stimulant and were incubated at 37° C. and 5% CO2 for 30 min prior to plating cells. Identical conditions were prepared for comparison of whole blood assay to PBMC assay, and culture media alone was used as a negative control. Combination of 500 ng/ml of anti-CD3 (clone HIT3a; BioLegend) with 2.5 μg/ml of anti-CD28 (clone CD28.2; BioLegend) Abs were used to induce IFN-γ, and 2.5 ng/ml LPS (from Salmonella abortus equi S-form, ALX-581-009; Enzo Life Sciences, Farmingdale, N.Y.) was used to induce TNF-α wells. Total well volume for all samples was 200 μl. PBMCs were plated into wells in quantities of 2.5×10^4 cells per well for IFN-γ and 2.5×10^3 cells per well for TNF-α. The relevant volume for 5×10^4 leukocytes of diluted whole blood (in culture media) was plated in each well based on complete blood counts performed in the clinical research core laboratory at Washington University. PBMCs and diluted whole blood were costimulated with and without recombinant human IL-7 (Escherichia coli-derived protein, product no. 207-IL; R&D Systems, Minneapolis, Minn.). ELISpot assays were incubated overnight for 18-22 h at 37° C. and 5% CO2 as previously described (29). […]
as §1, §2

IL-7: recombinant human IL-7, immunoadjuvant and potent T cell activator; R&D Systems ex vivo, RevImmune for patients
improvement in the number of SARS-CoV-2 spike protein and nucleocapsid specific T cells [1]: over 30 fold
effect on sepsis-induced lymphopenia [2]: reversed sepsis-induced lymphopenia
tolerability of IL-7 in patients with sepsis [2]: well tolerated
mean increase in LPS-induced TNF-α-producing cells after IL-7 coincubation ([3]; COVID-19 patient PBMCs, LPS + IL-7, not statistically significant): 101%
effect of IL-7 on monocyte TNF-α production ([3]; COVID-19 patients, LPS vs LPS + IL-7, n=25): did not increase
increase in the number of TNF-α-producing cells [4]: multifold increases
IFN-α (all subtypes) plasma concentration ([5]; Post IL-7, Day 12): Undetectable
IFN-β plasma concentration ([5]; Post IL-7, Day 12): 130 pg/mL
IFN-α (all subtypes) plasma concentration ([5]; Post IL-7, Day 21): Undetectable
IFN-β plasma concentration ([5]; Post IL-7, Day 21): 4.1 pg/mL
change in TNF-α SFUs with IL-7 ([6]; CINS): no change
change in TNF-α SFUs with IL-7 ([6]; healthy subjects, p<0.01): significant decrease
effect of IL-7 on the number of TNF-α-producing cells ([6]; septic patients, LPS + IL-7): does not increase
tolerability of IL-7 test dose ([7]; 3 μg/kg ideal body weight intramuscularly, day 59 postinjury): well tolerated
onset of significant improvement of clinical status after initiation of IL-7 ([7]; 10 μg/kg every 3-4 days for 7 doses after test dose): 4 to 7 days
definitive closure of open wounds ([7]; after resolution of wound fungal infection, >700 cm^2): > 90%
absolute lymphocyte count reached ([7]; from a low of 600 lymphocytes/μL, upper limit of normal 3500): > 4000 lymphocytes/μL
increase of absolute lymphocyte count ([7]; fungal wound sepsis patient on IL-7): > 6 fold
effect of IL-7 on IFN-γ SFUs ([8]; healthy subjects and CINS patients): significantly increased
increase in IFN-γ spot numbers with IL-7 ([8]; sepsis nonsurvivors): 312%±240
increase in IFN-γ spot numbers with IL-7 ([8]; sepsis survivors): 102%±32
increase in the number of IFN-γ spots when stimulated with IL-7 ([8]; septic patients overall (n=19), CD3/CD28 + IL-7, p<0.005): 172%±77
